Consider 14 compounds from US4264600A (priority 1979, dated 1981).

Values after ≈ are worked out from the molar mass of the structure shown. Where two headings read alike, the source gives them in different places.

Data set [1] deals with Ann Arbor or Maryland B strains of influenza virus. In words: in vivo survival of mice infected with influenza virus. The note with it: for minimal effective dose: read-out: in vivo dose at which there was a statistically significant increase in survival. Further details: species or system White Swiss female mice, McAllister strain. As to the method:
In vivo activity was determined as follows: White Swiss female mice (11-13 g.) McAllister strain were infected with aqueous dilutions of Ann Arbor or Maryland B strains of influenza virus in an air borne injection apparatus. Graded dose levels of the drug were injected intraperitoneally (IP) or administered orally by gavage 24 and 4 hours preinfection and 24 and 48 hours postinfection. Date of death was determined. The drug was administered in water containing 2% of a surfactant. In Table 1, column 7, a dosage level for each drug is given at which there was a statistically significant increase in survival and column 6 gives the route of administration.

The test system of data set [2] is Maryland B influenza virus. In words: in vitro plaque inhibition, Maryland B influenza virus. Type of data set: cell-based. The note with it: for IC50: unidentified influenza virus, in Chlorocebus sabaeus, 72 h, read-out: I50, amount of drug which inhibits 50% of the plaques.
The conditions of data set [3]: rats, 100 mg/kg.
The conditions of data set [4]: dogs, 30-60 mg/kg.
Data set [5] has as its system Ann Arbor influenza virus. In words: in vitro plaque inhibition, Ann Arbor influenza virus. The data set is classed as cell-based. To be noted: for IC50: unidentified influenza virus, in Chlorocebus sabaeus, 72 h, read-out: I50, amount of drug which inhibits 50% of the plaques.
The conditions of data set [6]: compared with 6,7-dichloro congener.
Data set [7] relates to Vaccinia. Type of data set: cell-based, Vaccinia virus. To be noted: in vitro.
For data set [8], the system named is Polio III. Type of data set: cell-based, Polio III virus. To be noted: in vitro.
Data set [9] concerns Echo 10. In words: in vitro plaque suppression test, Echo 10. The data set is classed as cell-based, Echo 10 virus. To be noted: Echo 10, in vitro.
The subject of data set [10] is Herpes simplex. In words: in vitro plaque suppression test, Herpes simplex. The data set is classed as cell-based, Herpes simplex virus.
Where [11] appears, read: route IP, OR, 24 and 4 hours preinfection and 24 and 48 hours postinfection.
Setting [12] is: increased to 60 mg/day for 7 days.
[13] abbreviates: nasogastric gavage, 30 mg/day for 14 days.
Where [14] appears, read: route IP, 24 and 4 hours preinfection and 24 and 48 hours postinfection.

Turning to `O=C(O)CCc1nc2cc(Cl)c(Cl)cc2[nH]c1=O` [B], in data set [1] (ip), the minimal effective dose was found to be 50 mg/kg.
As to `COC(=O)c1nc2cc(Cl)c(Cl)cc2[nH]c1=O` [C], the minimal effective dose in data set [1] (ip) turned out to be 60 mg/kg. For the same compound, the IC50 in data set [2] was less than 10 µg/mL.
Consider `CCOC(=O)c1nc2cc(Cl)c(Cl)cc2[nH]c1=O` [D], for which, in data set [3], the “degree of hepatotoxicity (both drugs)” value is given as “equal, though minor” and the “degree of nephrotoxicity (both drugs)” value is on record as “equal, though minor”. Besides, in [1] (setting [11]), the minimal effective dose came out at 40 mg/kg. For the setting “30 then 60 mg/day”, the blood urea nitrogen result is on record as “elevated”, the creatinine levels result was “elevated” and the kidney damage result is given as “evidence of kidney damage”. Moreover, under setting [12], the AP result was “remain elevated” and the SGPT result is reported as “returned to normal”. Moreover, under setting [13], the AP entry is “moderate increases”; the SGPT result is on record as “moderate increases”; the “liver damage (from AP and SGPT)” value is “suggestive of liver damage”. For the same compound, the IC50 in [2] came to 38 µg/mL (≈ 132 µM). Further, in [4], the “degree of hepatotoxicity (both drugs)” value is given as “equal, though minor” and the “degree of nephrotoxicity (both drugs)” value is “equal, though minor”.
On to `O=C(O)c1nc2cc(Cl)c(Cl)cc2[nH]c1=O` [E], for which the IC50 in data set [5] is less than 100 µg/mL; in data set [2], less than 71 µg/mL. The minimal effective dose in data set [1] (ip) was found to be 50 mg/kg.
On to `CCOC(=O)c1nc2cc(I)c(I)cc2[nH]c1=O` [F, Ethyl 6,7-Diiodo-3,4-dihydro-3-oxo-2-quinoxaline Carboxylate], for which the “Ann Arbor influenza virus in vitro activity (in words)” value in data set [5] (Ann Arbor influenza virus, in vitro) is given as “Active”. Also, the minimal effective dose in [1] amounted to 80 mg/kg.
`CCCCOC(=O)c1nc2cc(Cl)c(Cl)cc2[nH]c1=O` [G]: the IC50 in data set [2] amounted to 38 µg/mL (≈ 121 µM).
For the compound `O=C(OCCCl)c1nc2cc(Cl)c(Cl)cc2[nH]c1=O` [J], the IC50 in [5] worked out at 76 µg/mL (≈ 236 µM); in data set [2], 58 µg/mL (≈ 180 µM).
Regarding `C=CCOC(=O)c1nc2cc(Cl)c(Cl)cc2[nH]c1=O` [K], the IC50 in data set [5] was found to be 75 µg/mL (≈ 251 µM); in data set [2], 33 µg/mL (≈ 110 µM).
As to `O=C(OCC1CCC1)c1nc2cc(Cl)c(Cl)cc2[nH]c1=O` [L, Cyclobutylmethyl 6,7-Dichloro-3,4-dichloro-3-oxo-2-quinoxaline Carboxylate], the IC50 was found to be 20 µg/mL (≈ 61.1 µM) in data set [5] and 15 µg/mL (≈ 45.8 µM) in data set [2].
Turning to `CCOC(=O)c1nc2cc(Br)c(Br)cc2[nH]c1=O` [M], in data set [3], the “degree of hepatotoxicity (both drugs)” value is on record as “equal, though minor” and the “degree of nephrotoxicity (both drugs)” value is “equal, though minor”. Besides, the minimal effective dose in data set [1] (setting [11]) was 40 to 80 mg/kg. In data set [6], the “toxicity in monkeys relative to its 6,7-dichloro congener” value is “much less toxic”. For the same compound, in data set [4], the “degree of hepatotoxicity (both drugs)” value was “equal, though minor” and the “degree of nephrotoxicity (both drugs)” value is listed as “equal, though minor”.
“Ethyl 6(7)-Chloro-7(6)-bromo-3,4-dihydro-3-oxo-2-quinoxalineCarboxylate”: the “Activity level (dose level at which activity was found)” value (shortened to “Activity level”) in data set [7] and in data set [8] was 2000 µg/mg in each case. Further, in data set [1] (setting [14]), the “in vivo dose at which there was a statistically significant increase in survival” value is on record as 80 mg/kg.
As to “Ethyl 6-Nitro-8-chloro-3,4-dihydro-3-oxo-2-quinoxaline carboxylate and Ethyl 7-Nitro-5-chloro-3,4-dihydro-3-oxo-2-quinoxaline Carboxylate [S]”, the “Activity level” value in data set [7], in [9] and in data set [10] was 2000 µg/mg each time. Moreover, in [1] (setting [14]), the “in vivo dose at which there was a statistically significant increase in survival” value was 80 mg/kg.
In the case of “Ethyl 6-methoxy-5-nitro-3,4-dihydro-3-oxo-2-quinoxaline Carboxylate and Ethyl 7-Methoxy-8-nitro-3,4-dihydro-3-oxo-2-quinoxaline Carboxylate”, in data set [1] (setting [14]), the “in vivo dose at which there was a statistically significant increase in survival” value amounted to 80 mg/kg. Besides, the “Activity level” value in data set [9] and in data set [10] was 2000 µg/mg throughout.
For the compound “ethyl 6(7)-nitro-3,4-dihydro-3-oxo-2-quinoxaline carboxylate”, in data set [7], the “Activity level” value was 2000 µg/mg. For the same compound, the “in vivo dose at which there was a statistically significant increase in survival” value in [1] (setting [14]) was determined as 80 mg/kg. In [2] (Maryland B influenza virus, in vitro, 72 hours at 37° C.), the “I50, amount of drug which inhibits 50% of the plaques” value came to 40 µg/mL.
